Laboratory results reported in PubChem BioAssay (NCI).
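Cells were grown in 96-well plates and exposed to each compound for 48 hours at five concentrations; endpoints were interpolated linearly between bracketing concentrations, or set to the highest concentration if not reached. GI50: concentration for 50% inhibition of growth. Definition used: TGI = concentration required for complete inhibition of growth.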

Tests used:
Test in all cases: NCI tumour cell line growth inhibition, 48 h
[1] = system: SK-MEL-2 melanoma
[2] = system: OVCAR-8 ovarian
[3] = system: HL-60(TB) leukemia
[4] = system: SN12C renal
[5] = system: DU-145 prostate
[6] = system: MCF7 breast
[7] = system: TK-10 renal
[8] = system: COLO 205 colon
[9] = system: NCI-H226 lung
[10] = system: SK-MEL-5 melanoma
[11] = system: ACHN renal
[12] = system: SF-539 CNS
[13] = system: SNB-75 CNS
[14] = system: IGROV1 ovarian
[15] = system: UO-31 renal
[16] = system: A549 NSCLC
[17] = system: SF-268 CNS
[18] = system: SW-620 colon
[19] = system: HOP-62 NSCLC
[20] = system: OVCAR-4 ovarian
[21] = system: T-47D breast
[22] = system: KM12 colon
[23] = system: SK-OV-3 ovarian
[24] = system: PC-3 prostate
[25] = system: SF-295 CNS
[26] = system: HT29 colon
[27] = system: OVCAR-5 ovarian
[28] = system: BT-549 breast
[29] = system: NCI-H522 lung
[30] = system: 786-0 renal
[31] = system: HS 578T breast
[32] = system: UACC-62 melanoma
[33] = system: NCI-H460 lung
[34] = system: CCRF-CEM leukemia
[35] = system: NCI/ADR-RES ovarian
[36] = system: RXF 393 renal
[37] = system: RPMI-8226 leukemia
[38] = system: MALME-3M melanoma
[39] = system: NCI-H23 lung
[40] = system: U251 CNS
[41] = system: SK-MEL-28 melanoma
[42] = system: SNB-19 CNS
[43] = system: OVCAR-3 ovarian
[44] = system: EKVX NSCLC
[45] = system: SR leukemia
[46] = system: MDA-MB-435
[47] = system: MDA-MB-231 breast
[48] = system: HCC-2998 colon
[49] = system: HOP-92 NSCLC
[50] = system: MOLT-4 leukemia
[51] = system: A498 renal
[52] = system: HCT-15 colon
[53] = system: UACC-257 melanoma
[54] = system: K-562 leukemia
[55] = system: LOX IMVI melanoma
[56] = system: M14 melanoma
[57] = system: HCT-116 colon
[58] = system: CAKI-1 renal

Structure (SMILES): O=C(Nc1cccc(-c2nc(-c3ccc(NC(=O)c4cccnc4)cc3Cl)no2)c1)Nc1ccc(NC(=O)C2CC2)c(C(F)(F)F)c1
- GI50 [1]: 1140 nM
- TGI [1]: 2980 nM
- GI50 [2]: 449 nM
- TGI [2]: 3100 nM
- GI50 [3]: 259 nM
- TGI [3]: 997 nM
- GI50 [4]: 415 nM
- TGI [4]: 1660 nM
- GI50 [5]: 435 nM
- TGI [5]: 4210 nM
- GI50 [6]: 228 nM
- TGI [6]: 1220 nM
- GI50 [7]: 1920 nM
- TGI [7]: 5460 nM
- GI50 [8]: 380 nM
- TGI [8]: 1610 nM
- GI50 [9]: 562 nM
- TGI [9]: 1960 nM
- GI50 [10]: 381 nM
- TGI [10]: 1400 nM
- GI50 [11]: 2070 nM
- TGI [11]: 13200 nM
- GI50 [12]: 226 nM
- TGI [12]: 655 nM
- GI50 [13]: 224 nM
- TGI [13]: 806 nM
- GI50 [14]: 258 nM
- TGI [14]: 830 nM
- GI50 [15]: 1610 nM
- TGI [15]: 5450 nM
- GI50 [16]: 429 nM
- TGI [16]: 4760 nM
- GI50 [17]: 1070 nM
- TGI [17]: 4830 nM
- GI50 [18]: 345 nM
- TGI [18]: 1510 nM
- GI50 [19]: 361 nM
- TGI [19]: 1800 nM
- GI50 [20]: 565 nM
- TGI [20]: 1830 nM
- GI50 [21]: 535 nM
- TGI [21]: 2400 nM
- GI50 [22]: 376 nM
- TGI [22]: 1750 nM
- GI50 [23]: 1760 nM
- TGI [23]: 3890 nM
- GI50 [24]: 226 nM
- TGI [24]: 790 nM
- GI50 [25]: 271 nM
- TGI [25]: 752 nM
- GI50 [26]: 336 nM
- TGI [26]: 1430 nM
- GI50 [27]: 446 nM
- TGI [27]: 1710 nM
- GI50 [28]: 1070 nM
- TGI [28]: 3020 nM
- GI50 [29]: 349 nM
- TGI [29]: 1760 nM
- GI50 [30]: 994 nM
- TGI [30]: 3110 nM
- GI50 [31]: 324 nM
- TGI [31]: 1290 nM
- GI50 [32]: 317 nM
- TGI [32]: 1570 nM
- GI50 [33]: 343 nM
- TGI [33]: 1130 nM
- GI50 [34]: 270 nM
- TGI [34]: 1900 nM
- GI50 [35]: 22200 nM
- TGI [35]: > 100000 nM
- GI50 [36]: 247 nM
- TGI [36]: 741 nM
- GI50 [37]: 303 nM
- TGI [37]: 1100 nM
- GI50 [38]: 240 nM
- TGI [38]: 808 nM
- GI50 [39]: 411 nM
- TGI [39]: 1570 nM
- GI50 [40]: 290 nM
- TGI [40]: 1020 nM
- GI50 [41]: 559 nM
- TGI [41]: 1710 nM
- GI50 [42]: 381 nM
- TGI [42]: 1900 nM
- GI50 [43]: 315 nM
- TGI [43]: 1100 nM
- GI50 [44]: 997 nM
- TGI [44]: 5110 nM
- GI50 [45]: 96.3 nM
- TGI [45]: 962 nM
- GI50 [46]: 126 nM
- TGI [46]: 381 nM
- GI50 [47]: 323 nM
- TGI [47]: 1260 nM
- GI50 [48]: 689 nM
- TGI [48]: 2060 nM
- GI50 [49]: 522 nM
- TGI [49]: 1330 nM
- GI50 [50]: 288 nM
- TGI [50]: 1020 nM
- GI50 [51]: 161 nM
- TGI [51]: 1890 nM
- GI50 [52]: 784 nM
- TGI [52]: 5620 nM
- GI50 [53]: 1330 nM
- TGI [53]: 3490 nM
- GI50 [54]: 156 nM
- TGI [54]: 10700 nM
- GI50 [55]: 174 nM
- TGI [55]: 388 nM
- GI50 [56]: 307 nM
- TGI [56]: 1280 nM
- GI50 [57]: 303 nM
- TGI [57]: 1280 nM
- GI50 [58]: 437 nM
- TGI [58]: 1800 nM
